Source: ChEMBL document CHEMBL2029247, “Synthesis and structure-activity relationship of aminopyridines with substituted benzoxazoles as c-Met kinase inhibitors” (Bioorg Med Chem Lett, 2012)

Tests used:
[1] = molecular target: Hepatocyte growth factor receptor (Homo sapiens, UniProt P08581); assay: Inhibition of recombinant c-Met by time resolved-fluorescence resonance energy transfer analysis
[2] = molecular target: T1, Receptor-type tyrosine-protein kinase FLT3 (Homo sapiens, UniProt P36888); assay: Inhibition of recombinant FLT3 by time resolved-fluorescence resonance energy transfer analysis
T1 sequence (P36888 whole entry): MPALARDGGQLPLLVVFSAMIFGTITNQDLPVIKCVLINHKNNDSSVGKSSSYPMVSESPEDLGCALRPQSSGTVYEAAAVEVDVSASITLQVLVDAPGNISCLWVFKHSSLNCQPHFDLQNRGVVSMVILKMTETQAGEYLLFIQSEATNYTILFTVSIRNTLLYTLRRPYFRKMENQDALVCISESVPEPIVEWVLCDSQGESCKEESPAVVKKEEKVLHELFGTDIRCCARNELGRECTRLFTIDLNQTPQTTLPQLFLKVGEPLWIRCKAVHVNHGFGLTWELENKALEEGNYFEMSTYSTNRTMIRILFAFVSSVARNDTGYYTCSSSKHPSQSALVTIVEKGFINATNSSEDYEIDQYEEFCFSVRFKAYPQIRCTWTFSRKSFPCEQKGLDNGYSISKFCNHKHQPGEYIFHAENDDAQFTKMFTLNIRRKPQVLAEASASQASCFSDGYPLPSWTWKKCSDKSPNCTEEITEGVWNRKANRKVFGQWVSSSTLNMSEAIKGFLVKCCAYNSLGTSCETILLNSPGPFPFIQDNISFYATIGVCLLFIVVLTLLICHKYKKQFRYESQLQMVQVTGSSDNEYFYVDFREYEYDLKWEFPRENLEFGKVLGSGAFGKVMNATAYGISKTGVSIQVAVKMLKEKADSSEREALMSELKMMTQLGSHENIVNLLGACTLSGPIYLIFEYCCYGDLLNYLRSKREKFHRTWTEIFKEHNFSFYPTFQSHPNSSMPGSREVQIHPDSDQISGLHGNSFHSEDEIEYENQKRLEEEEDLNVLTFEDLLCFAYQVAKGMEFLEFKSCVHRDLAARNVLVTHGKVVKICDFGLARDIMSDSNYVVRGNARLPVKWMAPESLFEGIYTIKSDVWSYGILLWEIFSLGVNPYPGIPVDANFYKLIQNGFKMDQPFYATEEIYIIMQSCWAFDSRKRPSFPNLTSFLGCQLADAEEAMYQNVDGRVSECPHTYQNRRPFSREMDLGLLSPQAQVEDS

cells = settings: Homo sapiens, Hs746T, 72 h
Description: Cytotoxicity against human Hs 746T cells after 72 hrs by WST-8 assay

[3] = molecular target: Receptor-type tyrosine-protein kinase FLT3 (Homo sapiens, UniProt P36888, D835Y); assay: Inhibition of FLT3 D835Y mutant
[4] = molecular target: Macrophage-stimulating protein receptor (Homo sapiens, UniProt Q04912); assay: Inhibition of Ron
Aurora kinase A = molecular target: T2, Aurora kinase A (Homo sapiens, UniProt O14965); assay: Inhibition of Aurora A
T2 sequence (O14965 whole entry): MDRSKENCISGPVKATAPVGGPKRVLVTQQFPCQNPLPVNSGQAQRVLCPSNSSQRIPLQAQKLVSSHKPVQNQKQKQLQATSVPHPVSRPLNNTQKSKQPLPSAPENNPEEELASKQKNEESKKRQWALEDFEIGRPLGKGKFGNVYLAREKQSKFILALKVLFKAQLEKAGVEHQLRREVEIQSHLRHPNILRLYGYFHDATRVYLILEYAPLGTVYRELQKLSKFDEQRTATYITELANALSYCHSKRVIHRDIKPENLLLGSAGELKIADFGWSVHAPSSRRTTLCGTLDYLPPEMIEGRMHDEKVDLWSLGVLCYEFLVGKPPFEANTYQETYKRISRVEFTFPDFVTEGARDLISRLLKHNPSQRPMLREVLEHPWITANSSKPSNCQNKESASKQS

| IC50 [1] | Compound | also measured |
| --- | --- | --- |
| 14 nM | Nc1ccc2nc(-c3cc(-c4cnn(C5CCNCC5)c4)cnc3N)oc2c1 | IC50 [2]: 3.6 nM; IC50 (cells): 3700 nM |
| 41 nM | Nc1ncc(-c2cnn(C3CCNCC3)c2)cc1-c1nc2cc(Cl)cc(F)c2o1 |  |
| 130 nM | Nc1ncc(-c2cnn(C3CCNCC3)c2)cc1-c1nc2ccc(NC(=O)Nc3ccccc3)cc2o1 |  |
| 210 nM | Nc1ncc(-c2cnn(C3CCNCC3)c2)cc1-c1nc2ccc(-c3cc[nH]n3)cc2o1 |  |
| 22 nM | Nc1ncc(-c2cnn(C3CCNCC3)c2)cc1-c1nc2cc(O)ccc2o1 |  |
| 90 nM | Nc1ncc(-c2cnn(C3CCN(CCO)CC3)c2)cc1-c1nc2ccc(F)cc2o1 |  |
| 1700 nM | Cn1cc(-c2cnc(N)c(-c3nc4ccc(Cl)cc4o3)c2)cn1 |  |
| 540 nM | CC(=O)Nc1ccc2oc(-c3cc(-c4cnn(C5CCNCC5)c4)cnc3N)nc2c1 [listing 2 of 2 here] |  |
| 130 nM | CC(C)Nc1cccc2nc(-c3cc(-c4cnn(C5CCNCC5)c4)cnc3N)oc12 |  |
| 45 nM | Cc1ccc(S(=O)(=O)NC(=O)Nc2ccc3nc(-c4cc(-c5cnn(C6CCNCC6)c5)cnc4N)oc3c2)cc1 |  |
| 28 nM | Nc1ncc(-c2cnn(C3CCNCC3)c2)cc1-c1nc2ccc(-c3cccnc3)cc2o1 |  |
| 28 nM | CC(=O)N1CCC(n2cc(-c3cnc(N)c(-c4nc5c(C)c(O)c(C)cc5o4)c3)cn2)CC1 |  |
| 130 nM | CC(O)c1ccc2nc(-c3cc(-c4cnn(C5CCNCC5)c4)cnc3N)oc2c1 (stereo not drawn) |  |
| 63 nM | Nc1ncc(-c2cnn(C3CCNCC3)c2)cc1-c1nc2ccc(Nc3ncccn3)cc2o1 |  |
| 800 nM | CC(=O)c1ccc2nc(-c3cc(-c4cnn(C5CCNCC5)c4)cnc3N)oc2c1 |  |
| 160 nM | CNc1ccc2oc(-c3cc(-c4cnn(C5CCNCC5)c4)cnc3N)nc2c1 |  |
| 77 nM | COc1ccc(-c2cccc3nc(-c4cc(-c5cnn(C6CCNCC6)c5)cnc4N)oc23)cc1 |  |
| 220 nM | CC(=O)N1CCC(n2cc(-c3cnc(N)c(-c4nc5ccc(Cl)cc5o4)c3)cn2)CC1 |  |
| 180 nM | Cc1cc2nc(-c3cc(-c4cnn(C5CCNCC5)c4)cnc3N)oc2cc1O |  |

More lines, now with the values behind:

| Compound | IC50 [1] | also measured |
| --- | --- | --- |
| Cc1cc2oc(-c3cc(-c4cnn(C5CCNCC5)c4)cnc3N)nc2c(C)c1O | 3 nM |  |
| CC(=O)Nc1ccc2oc(-c3cc(-c4cnn(C5CCNCC5)c4)cnc3N)nc2c1 [listing 1 of 2 here] | 540 nM |  |
| Nc1ncc(-c2cnn(CCO)c2)cc1-c1nc2cccc(-c3ccccn3)c2o1 | 53 nM |  |
| CC(=O)N1CCC(n2cc(-c3cnc(N)c(-c4nc5cc(O)c(C)cc5o4)c3)cn2)CC1 | 51 nM |  |
| CN1CCC(n2cc(-c3cnc(N)c(-c4nc5ccc(F)cc5o4)c3)cn2)CC1 | 240 nM |  |
| Nc1ccc2oc(-c3cc(-c4cnn(C5CCNCC5)c4)cnc3N)nc2c1 | 56 nM |  |
| CCCNc1ccc2nc(-c3cc(-c4cnn(C5CCNCC5)c4)cnc3N)oc2c1 | 150 nM |  |
| Nc1ncc(-c2cnn(C3CCNCC3)c2)cc1-c1nc2ccc(Oc3ncccn3)cc2o1 | 23 nM |  |
| Cn1cc(-c2cnc(N)c(-c3nc4cccc(-c5ccccn5)c4o3)c2)cn1 | 14 nM |  |
| Nc1ncc(-c2cnn(C3CCNCC3)c2)cc1-c1nc2ccc(NS(=O)(=O)c3ccc(F)cc3)cc2o1 | 67 nM |  |
| CCc1cc2oc(-c3cc(-c4cnn(C5CCNCC5)c4)cnc3N)nc2cc1O |  | IC50 (cells): 22 nM |
| Nc1ncc(-c2cnn(C3CCNCC3)c2)cc1-c1nc2ccc(Nc3ccc(F)cc3)cc2o1 | 410 nM |  |
| Nc1ncc(-c2cnn(C3CCNCC3)c2)cc1-c1nc2cccc(O)c2o1 | 110 nM |  |
| Nc1ncc(-c2cnn(C3CCNCC3)c2)cc1-c1nc2ccc(O)c(-c3ccccc3)c2o1 | 48 nM | IC50 [2]: 14 nM; IC50 (cells): 10 nM |
| Nc1ncc(-c2cnn(C3CCNCC3)c2)cc1-c1nc2ccc(O)c(-c3cccnc3)c2o1 | 4 nM |  |
| Nc1ncc(-c2cnn(C3CCNCC3)c2)cc1-c1nc2ccc(O)c(-c3cnccn3)c2o1 |  | IC50 (cells): 180 nM |
| Nc1ncc(-c2cnn(C3CCNCC3)c2)cc1-c1nc2cc(Cl)ccc2o1 | 53 nM |  |
| Nc1ncc(-c2cnn(C3CCNCC3)c2)cc1-c1nc2cccc(-c3ccccn3)c2o1 |  | IC50 (cells): 240 nM |
| Nc1ncc(-c2cnn(C3CCNCC3)c2)cc1-c1nc2ccc(O)cc2o1 | 19 nM | IC50 [2]: 4 nM; IC50 [3]: 0.3 nM; IC50 [4]: 14 nM; IC50 (Aurora kinase A): 90 nM; IC50 (cells): 450 nM |
| Cc1c(O)ccc2nc(-c3cc(-c4cnn(C5CCNCC5)c4)cnc3N)oc12 | 0.2 nM | IC50 [2]: 34 nM; IC50 (cells): 35 nM |
| Nc1ncc(-c2cnn(C3CCNCC3)c2)cc1-c1nc2ccc(Oc3ccncn3)cc2o1 | 34 nM |  |
| Cc1cc2oc(-c3cc(-c4cnn(C5CCNCC5)c4)cnc3N)nc2cc1O |  | IC50 (cells): 12 nM |
| CS(=O)(=O)Nc1ccc2nc(-c3cc(-c4cnn(C5CCNCC5)c4)cnc3N)oc2c1 | 88 nM |  |
